In assay [1] the target is T1, Peptide deformylase 1A, chloroplastic/mitochondrial (Arabidopsis thaliana, UniProt Q9FV53).
T1 sequence (Q9FV53 whole entry): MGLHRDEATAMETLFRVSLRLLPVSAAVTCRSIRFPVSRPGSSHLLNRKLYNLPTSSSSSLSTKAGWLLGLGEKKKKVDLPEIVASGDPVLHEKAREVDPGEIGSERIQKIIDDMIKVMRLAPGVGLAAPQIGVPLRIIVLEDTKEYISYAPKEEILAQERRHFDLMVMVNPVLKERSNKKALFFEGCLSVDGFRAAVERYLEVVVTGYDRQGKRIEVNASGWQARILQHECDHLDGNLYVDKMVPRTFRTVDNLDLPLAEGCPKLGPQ

The target of a further assay is T2, Peptide deformylase (Escherichia coli, UniProt Q9JN24).
T2 sequence (Q9JN24 whole entry): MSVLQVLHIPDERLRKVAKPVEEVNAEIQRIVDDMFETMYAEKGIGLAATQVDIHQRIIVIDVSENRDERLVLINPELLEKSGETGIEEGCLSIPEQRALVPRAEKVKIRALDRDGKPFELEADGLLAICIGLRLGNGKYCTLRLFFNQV

Assay [2] deals with Escherichia coli. The experiment in a line: Antibacterial activity against Escherichia coli CAG1284. It counts as functional.
Assay [3] has as its system Bacillus subtilis. The experiment in a line: Antibacterial activity against Bacillus subtilis D101. It counts as functional.
Assay [4] relates to Bacillus subtilis. The experiment in a line: Antibacterial activity against Bacillus subtilis 168. It counts as functional.
Assay [5] concerns Bacillus subtilis. The experiment in a line: Antibacterial activity against Bacillus subtilis Y101. It counts as functional.
Assay [6] relates to Escherichia coli. Nature of the assay: Antibacterial activity against Escherichia coli JM101Tr. It counts as functional.
The subject of assay [7] is Bacillus subtilis. Nature of the assay: Antibacterial activity against Bacillus subtilis MO3482. It counts as functional.
In assay [8] the test system is Bacillus subtilis. The experiment in a line: Antibacterial activity against Bacillus subtilis. It counts as functional.
Assay [9] addresses T3, Peptide deformylase, mitochondrial (Homo sapiens, UniProt Q9HBH1).
T3 sequence (Q9HBH1 whole entry): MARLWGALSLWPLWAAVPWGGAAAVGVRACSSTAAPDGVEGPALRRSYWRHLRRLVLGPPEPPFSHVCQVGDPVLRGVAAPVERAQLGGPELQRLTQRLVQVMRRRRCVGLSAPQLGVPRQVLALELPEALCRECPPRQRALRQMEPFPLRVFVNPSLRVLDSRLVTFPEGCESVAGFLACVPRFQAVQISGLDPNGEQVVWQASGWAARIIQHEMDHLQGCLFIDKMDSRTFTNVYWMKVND

Assay [10] deals with Escherichia coli. The experiment in a line: Antibacterial activity against Escherichia coli K37. It counts as functional.

Each structure is given as a SMILES string. ≈ marks a conversion by molar mass, not a printed value.

On to `CC(C)(C)OC(=O)NC(CNO)Cc1ccccc1` (stereo not given), for which the 50% inhibitory concentration (IC50) is over 1000 µM in [1] and 52 µM against Peptide deformylase.
Consider `O=C(CO)Cc1c[nH]c2ccc(Br)cc12`, for which the minimum inhibitory concentration (MIC) with Escherichia coli [2], with Bacillus subtilis [3], against Bacillus subtilis [4], with Bacillus subtilis [5], against Escherichia coli [6] and in the assay with Bacillus subtilis [7] was over 300 µg/mL each time. The IC50 was 790 µM in assay [1] and 560 µM against Peptide deformylase.
On to `CC(=O)SCC(=O)Cc1c[nH]c2ccccc12`, for which the IC50 in assay [1] was over 1000 µM; against Peptide deformylase it was 200 µM.
As to `Cc1[nH]c2ccc(Br)cc2c1CC(=O)NO`, the MIC against Bacillus subtilis [8] is 220 µg/mL (≈ 777 µM); against Escherichia coli [6], over 300 µg/mL. Further, the IC50 in [9] and in [1] was 450 µM each time.
Consider `COc1ccc2[nH]cc(CC(=O)NO)c2c1`, for which the minimum inhibitory concentration (MIC) is 155 µg/mL (≈ 704 µM) against Bacillus subtilis [8] and over 300 µg/mL with Escherichia coli [6]. For the same compound, the IC50 in assay [1] is over 1000 µM.
Regarding `Cc1c(CN(O)C=O)c2cc(Br)ccc2n1S(=O)(=O)c1ccccc1`, the MIC with Bacillus subtilis [8] stood at 35 µg/mL (≈ 82.7 µM); with Escherichia coli [6] it was 65 µg/mL (≈ 154 µM). Further, the half-maximal inhibitory concentration (IC50) in assay [9] amounted to 200 µM; in [1] it was 35 µM; against Peptide deformylase, 0.03 µM.
Take `O=C(O)Cc1cn(C(=O)OCc2ccccc2)c2ccccc12`: the 50% inhibitory concentration (IC50) in assay [1] was over 1000 µM; against Peptide deformylase, 300 µM.
`CC(C)(C)OC(=O)NC(Cc1ccccc1)CN(O)C=O` (stereo not given): the minimum inhibitory concentration (MIC) in the assay with Escherichia coli [2] is 120 µg/mL (≈ 408 µM); in the assay with Bacillus subtilis [3], over 300 µg/mL; with Bacillus subtilis [4], over 300 µg/mL; against Bacillus subtilis [5], 9 µg/mL (≈ 30.6 µM); against Escherichia coli [6], over 300 µg/mL; against Bacillus subtilis [7], over 300 µg/mL. Moreover, the IC50 at Peptide deformylase was 0.05 µM.
Regarding `CC(=O)SCC(=O)Cc1cn(C(=O)OCc2ccccc2)c2ccccc12`, the IC50 in [1] was determined as 500 µM; against Peptide deformylase, 350 µM.
For `O=C(CS)Cc1c[nH]c2ccc(Br)cc12`, the 50% inhibitory concentration (IC50) came out at 200 µM in assay [1] and 80 µM against Peptide deformylase.
As to `Cc1c(CNO)c2cc(Br)ccc2n1S(=O)(=O)c1ccccc1`, the half-maximal inhibitory concentration (IC50) in [1] came to 500 µM; at Peptide deformylase, 6 µM.
The matching figures for `CC(=O)SCC(=O)Cc1c[nH]c2ccc(Br)cc12`: 170 µM and 120 µM.
In the same order, the values of `Cc1[nH]c2ccc(Br)cc2c1CNO` are over 250 µM and 50 µM.
As for `CCCCC[C@H](CC(=O)NO)C(=O)N[C@H](C(=O)N1CCC[C@H]1CO)C(C)C` [ACTINONIN], the MIC is 32 µg/mL (≈ 83 µM) in the assay with Escherichia coli [10]; 0.125 µg/mL (≈ 0.324 µM) in the assay with Escherichia coli [2]; 1 µg/mL (≈ 2.59 µM) in the assay on Bacillus subtilis [3]; 1.3 µg/mL (≈ 3.37 µM) against Bacillus subtilis [8]; 1 µg/mL (≈ 2.59 µM) against Bacillus subtilis [4]; 0.125 µg/mL (≈ 0.324 µM) with Bacillus subtilis [5]. Further, the minimum inhibitory concentration (MIC) in the assay with Escherichia coli [6] came to 34 µg/mL (≈ 88.2 µM); with Bacillus subtilis [7], 1 µg/mL (≈ 2.59 µM). Besides, the IC50 in assay [1] was 0.027 µM; on Peptide deformylase, 0.01 µM.
For the compound `O=C(O)Cc1c[nH]c2ccccc12` [INDOLE-3-ACETIC ACID], the IC50 (in [1]; on Peptide deformylase) was over 1000 µM each time.

For orientation: IC50 means the concentration that gives 50% inhibition. A lower IC50 goes with greater potency. Broadly, the MIC is the lowest concentration found to suppress growth. Low readings indicate a more susceptible organism, high ones a less susceptible organism.

The values above are taken from ChEMBL document CHEMBL1139216, “Discovery and refinement of a new structural class of potent peptide deformylase inhibitors” (J Med Chem, 2007).
